Reference: patent EP0183129A1, “Quinolonecarboxylic acid derivatives” (KYORIN PHARMACEUTICAL CO., LTD., priority 1984, dated 1986)
≈ marks a conversion by molar mass, not a printed value. Read-outs that look alike come from different tables or passages of the source.

Columns and labels:
S. agalactiae 4342 = assay: In vitro antibacterial activity, MIC (clinical isolates); assay type: cell-based; settings: Streptococcus agalactiae; S. agalactiae 4342; 10^6 cells/ml; clinical isolate; read-out: MIC
E. coli ATCC 10536 = assay: In vitro antibacterial activity, MIC (standard strain); assay type: cell-based; settings: Escherichia coli, ATCC10536; E. coli ATCC 10536; 10^6 cells/ml; standard strain; read-out: MIC
S. pyogenes IID 692 = assay: as above; assay type: cell-based; settings: Streptococcus pyogenes, IID692; S. pyogenes IID 692; 10^6 cells/ml; standard strain; read-out: MIC
S. pneumoniae 2054 = assay: In vitro antibacterial activity, MIC (clinical isolates); assay type: cell-based; settings: Streptococcus pneumoniae; S. pneumoniae 2054; 10^6 cells/ml; clinical isolate; read-out: MIC
[1] = test system: Alcaligenes faecalis 0104002; assay: In vitro antibacterial activity, MIC (standard strain); assay type: cell-based; settings: Alcaligenes faecalis, 0104002, Alcaligenes faecalis 0104002; 10^6 cells/ml; standard strain; read-out: MIC
[2] = test system: Yersinia enterocolitica IID 981; assay: as above; assay type: cell-based; settings: IID981; Yersinia enterocolitica IID 981; 10^6 cells/ml; standard strain; read-out: MIC
[3] = test system: Clostridium perfringens KYA 13123; assay: microbe, parasite or virus in culture; assay type: cell-based; settings: KYA13123
S. agalactiae 4049 = assay: In vitro antibacterial activity, MIC (clinical isolates); assay type: cell-based; settings: Streptococcus agalactiae; S. agalactiae 4049; 10^6 cells/ml; clinical isolate; read-out: MIC
S. pneumoniae 3227 = assay: as above; assay type: cell-based; settings: Streptococcus pneumoniae
[4] = test system: Acinetobacter anitratus IID 876; assay: In vitro antibacterial activity, MIC (standard strain); assay type: cell-based; settings: Acinetobacter calcoaceticus, IID876, Acinetobacter anitratus IID 876; 10^6 cells/ml; standard strain; read-out: MIC
[5] = test system: Morganella morganii IID 602; assay: as above; assay type: cell-based; settings: IID602; Morganella morganii IID 602; 10^6 cells/ml; standard strain; read-out: MIC
S. pyogenes 3130 = assay: In vitro antibacterial activity, MIC (clinical isolates); assay type: cell-based; settings: Streptococcus pyogenes
S. pyogenes 4340 = assay: as above; assay type: cell-based; settings: Streptococcus pyogenes
B. fragilis 0558 = assay: In vitro antibacterial activity, MIC (standard strain); assay type: cell-based, Bacteroides fragilis; settings: Bacteroides fragilis, 0558, B. fragilis 0558; 10^6 cells/ml; standard strain; read-out: MIC
P. aeruginosa IFO 12689 = assay: as above; assay type: cell-based, Pseudomonas aeruginosa; settings: Pseudomonas aeruginosa, IFO12689; P. aeruginosa IFO 12689; 10^6 cells/ml; standard strain; read-out: MIC
S. agalactiae 4470 = assay: In vitro antibacterial activity, MIC (clinical isolates); assay type: cell-based; settings: Streptococcus agalactiae; S. agalactiae 4470; 10^6 cells/ml; clinical isolate; read-out: MIC
E. coli ML 4707 = assay: In vitro antibacterial activity, MIC (standard strain); assay type: cell-based; settings: Escherichia coli, ML4707; E. coli ML 4707; 10^6 cells/ml; standard strain; read-out: MIC
S. marcescens GN 7577 = assay: as above; assay type: cell-based; settings: Serratia marcescens, GN7577
[6] = test system: Citrobacter freundii IID 976; assay: as above; assay type: cell-based; settings: IID976; Citrobacter freundii IID 976; 10^6 cells/ml; standard strain; read-out: MIC
[7] = test system: Serratia marcescens IID 618; assay: as above; assay type: cell-based; settings: Serratia marcescens, IID618, Serratia marcescens IID 618; 10^6 cells/ml; standard strain; read-out: MIC
[8] = test system: Proteus vulgaris IFO 3167; assay: as above; assay type: cell-based; settings: IFO3167; Proteus vulgaris IFO 3167; 10^6 cells/ml; standard strain; read-out: MIC
[9] = test system: Streptococcus pyogenes S-8; assay: as above; assay type: cell-based; settings: S8
S. pyogenes 3102 = assay: In vitro antibacterial activity, MIC (clinical isolates); assay type: cell-based; settings: Streptococcus pyogenes
S. agalactiae 4368 = assay: as above; assay type: cell-based; settings: Streptococcus agalactiae; S. agalactiae 4368; 10^6 cells/ml; clinical isolate; read-out: MIC
S. faecalis 402 = assay: as above; assay type: cell-based; settings: Enterococcus faecalis; S. faecalis 402; 10^6 cells/ml; clinical isolate; read-out: MIC
S. pneumoniae 15 = assay: as above; assay type: cell-based; settings: Streptococcus pneumoniae; S. pneumoniae 15; 10^6 cells/ml; clinical isolate; read-out: MIC
P. mirabilis IID 994 = assay: In vitro antibacterial activity, MIC (standard strain); assay type: cell-based; settings: Proteus mirabilis, IID994; P. mirabilis IID 994; 10^6 cells/ml; standard strain; read-out: MIC
K. pneumoniae 1-220S = assay: as above; assay type: cell-based; settings: Klebsiella pneumoniae, 1220S; K. pneumoniae 1-220S; 10^6 cells/ml; standard strain; read-out: MIC
[10] = test system: Staphylococcus aureus 209 P; assay: as above; assay type: cell-based; settings: Staphylococcus aureus 209 P; 10^6 cells/ml; standard strain; read-out: MIC
[11] = test system: Escherichia coli NIHJ JC-2; assay: as above; assay type: cell-based; settings: Escherichia coli, NIHJJC2, Escherichia coli NIHJ JC-2; 10^6 cells/ml; standard strain; read-out: MIC
S. pneumoniae 2950 = assay: In vitro antibacterial activity, MIC (clinical isolates); assay type: cell-based; settings: Streptococcus pneumoniae
[12] = S. pneumoniae 3227, 10^6 cells/ml, clinical isolate, read-out: MIC
[13] = S. pyogenes 4340, 10^6 cells/ml, clinical isolate, read-out: MIC
[14] = S. marcescens GN 7577, 10^6 cells/ml, standard strain, read-out: MIC
[15] = Streptococcus pyogenes S-8, 10^6 cells/ml, standard strain, read-out: MIC
[16] = S. pyogenes 3102, 10^6 cells/ml, clinical isolate, read-out: MIC

CCNCC1CCN(c2c(F)cc3c(=O)c(C(=O)O)cn(C4CC4)c3c2Cl)C1 (stereo not drawn) [Example 13, 8-Chloro-l-cyclorpropyl-6-fluoro-1,4-dihydro-7-(3-ethylaminomethyl-l-pyrrolidinyl)-4-oxo-3-quinolinecarboxylic acid]
MIC (S. agalactiae 4342): 0.05 µg/mL (≈ 0.123 µM) | MIC (E. coli ATCC 10536): 0.025 µg/mL (≈ 0.0613 µM) | MIC (S. pyogenes IID 692): 0.05 µg/mL (≈ 0.123 µM) | MIC (S. pneumoniae 2054): 0.05 µg/mL (≈ 0.123 µM) | MIC [1]: 0.39 µg/mL (≈ 0.956 µM) | MIC [2]: 0.1 µg/mL (≈ 0.245 µM) | MIC [3]: 0.05 µg/mL (≈ 0.123 µM) | MIC (S. agalactiae 4049): 0.05 µg/mL (≈ 0.123 µM) | MIC (S. pneumoniae 3227; [12]): 0.05 µg/mL (≈ 0.123 µM) | MIC [4]: 0.05 µg/mL (≈ 0.123 µM) | MIC [5]: 0.1 µg/mL (≈ 0.245 µM) | MIC (S. pyogenes 3130; read-out: MIC): 0.05 µg/mL (≈ 0.123 µM) | MIC (S. pyogenes 4340; [13]): 0.05 µg/mL (≈ 0.123 µM) | MIC (B. fragilis 0558): 0.1 µg/mL (≈ 0.245 µM) | MIC (P. aeruginosa IFO 12689): 1.56 µg/mL (≈ 3.82 µM) | MIC (S. agalactiae 4470): 0.05 µg/mL (≈ 0.123 µM) | MIC (E. coli ML 4707): 0.025 µg/mL (≈ 0.0613 µM) | MIC (S. marcescens GN 7577; [14]): 0.78 µg/mL (≈ 1.91 µM) | MIC [6]: 0.05 µg/mL (≈ 0.123 µM) | MIC [7]: 0.1 µg/mL (≈ 0.245 µM) | MIC [8]: 0.025 µg/mL (≈ 0.0613 µM) | MIC [9, 15]: 0.05 µg/mL (≈ 0.123 µM) | MIC (S. pyogenes 3102; [16]): 0.05 µg/mL (≈ 0.123 µM) | MIC (S. agalactiae 4368): 0.025 µg/mL (≈ 0.0613 µM) | MIC (S. faecalis 402): 0.1 µg/mL (≈ 0.245 µM) | MIC (S. pneumoniae 15): 0.025 µg/mL (≈ 0.0613 µM) | MIC (P. mirabilis IID 994): 0.05 µg/mL (≈ 0.123 µM) | MIC (K. pneumoniae 1-220S): 0.1 µg/mL (≈ 0.245 µM) | MIC [10]: 0.0125 µg/mL (≈ 0.0306 µM) | MIC [11]: 0.0125 µg/mL (≈ 0.0306 µM)

CCNCC1CCN(c2c(F)cc3c(=O)c(C(=O)O)cn(C4CC4)c3c2Br)C1 (stereo not drawn) [Example 17, 8-Bromo-l-cyclopropyl-7-(3-ethylaminomethyl-l-pyrrolidinyl)-6-fluoro-1,4-dihydro-4-oxo-3-quinolinecarboxylic acid]
MIC (S. agalactiae 4342): 0.05 µg/mL (≈ 0.111 µM) | MIC (E. coli ATCC 10536): 0.025 µg/mL (≈ 0.0553 µM) | MIC (S. pyogenes IID 692): 0.05 µg/mL (≈ 0.111 µM) | MIC (S. pneumoniae 2054): 0.05 µg/mL (≈ 0.111 µM) | MIC [1]: 0.39 µg/mL (≈ 0.862 µM) | MIC [2]: 0.1 µg/mL (≈ 0.221 µM) | MIC [3]: 0.1 µg/mL (≈ 0.221 µM) | MIC (S. agalactiae 4049): 0.05 µg/mL (≈ 0.111 µM) | MIC (S. pneumoniae 3227; [12]): 0.05 µg/mL (≈ 0.111 µM) | MIC [4]: 0.05 µg/mL (≈ 0.111 µM) | MIC [5]: 0.2 µg/mL (≈ 0.442 µM) | MIC (S. pyogenes 3130; read-out: MIC): 0.05 µg/mL (≈ 0.111 µM) | MIC (S. pyogenes 4340; [13]): 0.05 µg/mL (≈ 0.111 µM) | MIC (B. fragilis 0558): ≤ 0.05 µg/mL | MIC (P. aeruginosa IFO 12689): 3.13 µg/mL (≈ 6.92 µM) | MIC (S. agalactiae 4470): 0.05 µg/mL (≈ 0.111 µM) | MIC (E. coli ML 4707): 0.025 µg/mL (≈ 0.0553 µM) | MIC (S. marcescens GN 7577; [14]): 0.78 µg/mL (≈ 1.72 µM) | MIC [6]: 0.05 µg/mL (≈ 0.111 µM) | MIC [7]: 0.1 µg/mL (≈ 0.221 µM) | MIC [8]: 0.025 µg/mL (≈ 0.0553 µM) | MIC [9, 15]: 0.05 µg/mL (≈ 0.111 µM) | MIC (S. pyogenes 3102; [16]): 0.05 µg/mL (≈ 0.111 µM) | MIC (S. agalactiae 4368): 0.05 µg/mL (≈ 0.111 µM) | MIC (S. faecalis 402): 0.1 µg/mL (≈ 0.221 µM) | MIC (S. pneumoniae 15): 0.05 µg/mL (≈ 0.111 µM) | MIC (P. mirabilis IID 994): 0.025 µg/mL (≈ 0.0553 µM) | MIC (K. pneumoniae 1-220S): 0.1 µg/mL (≈ 0.221 µM) | MIC [10]: 0.0125 µg/mL (≈ 0.0276 µM) | MIC [11]: 0.0125 µg/mL (≈ 0.0276 µM) | MIC (S. pneumoniae 2950; S. pneumoniae 2950, 10^6 cells/ml, clinical isolate, read-out: MIC): 0.05 µg/mL (≈ 0.111 µM)

CCn1cc(C(=O)O)c(=O)c2cc(F)c(N3CCNCC3)cc21 [NFLX, Norfloxacin, reference compound]
MIC (S. agalactiae 4342): 6.25 µg/mL (≈ 19.6 µM) | MIC (E. coli ATCC 10536): 0.05 µg/mL (≈ 0.157 µM) | MIC (S. pyogenes IID 692): 3.13 µg/mL (≈ 9.8 µM) | MIC (S. pneumoniae 2054): 6.25 µg/mL (≈ 19.6 µM) | MIC [1]: 3.13 µg/mL (≈ 9.8 µM) | MIC [2]: 0.1 µg/mL (≈ 0.313 µM) | MIC [3]: 1.56 µg/mL (≈ 4.89 µM) | MIC (S. agalactiae 4049): 6.25 µg/mL (≈ 19.6 µM) | MIC (S. pneumoniae 3227; 3227): 12.5 µg/mL (≈ 39.1 µM) | MIC [4]: 3.13 µg/mL (≈ 9.8 µM) | MIC [5]: 0.05 µg/mL (≈ 0.157 µM) | MIC (S. pyogenes 3130): 1.56 µg/mL (≈ 4.89 µM) | MIC (S. pyogenes 4340; 4340): 1.56 µg/mL (≈ 4.89 µM) | MIC (B. fragilis 0558): 25 µg/mL (≈ 78.3 µM) | MIC (P. aeruginosa IFO 12689): 0.78 µg/mL (≈ 2.44 µM) | MIC (S. agalactiae 4470): 6.25 µg/mL (≈ 19.6 µM) | MIC (E. coli ML 4707): 0.05 µg/mL (≈ 0.157 µM) | MIC (S. marcescens GN 7577): 1.56 µg/mL (≈ 4.89 µM) | MIC [6]: 0.05 µg/mL (≈ 0.157 µM) | MIC [7]: 0.05 µg/mL (≈ 0.157 µM) | MIC [8]: 0.025 µg/mL (≈ 0.0783 µM) | MIC ([9]; Streptococcus pyogenes): 1.56 µg/mL (≈ 4.89 µM) | MIC (S. pyogenes 3102; 3102): 1.56 µg/mL (≈ 4.89 µM) | MIC (S. agalactiae 4368): 3.13 µg/mL (≈ 9.8 µM) | MIC (S. faecalis 402): 6.25 µg/mL (≈ 19.6 µM) | MIC (S. pneumoniae 15): 3.13 µg/mL (≈ 9.8 µM) | MIC (P. mirabilis IID 994): 0.05 µg/mL (≈ 0.157 µM) | MIC (K. pneumoniae 1-220S): 0.2 µg/mL (≈ 0.626 µM) | MIC [10]: 0.78 µg/mL (≈ 2.44 µM) | MIC [11]: 0.025 µg/mL (≈ 0.0783 µM) | MIC (S. pneumoniae 2950; 2950): 12.5 µg/mL (≈ 39.1 µM)
